Source: patent US7994209B2, “3-phenoxymethylpyrrolidine compounds” (Theravance, Inc., priority 2009, dated 2011)

Tests used:
hNET = hNET (Homo sapiens, UniProt P23975); assay: hNET membrane radioligand binding assay (3H-nisoxetine), Assay 1
hSERT = hSERT (Homo sapiens, UniProt P31645); assay: hSERT membrane radioligand binding assay (3H-citalopram), Assay 1; conditions: SERT pKi, hSERT HEK-293 membranes, 1.0 nM 3H-citalopram; values given as lower bounds
Chain of hSERT (P31645 whole entry): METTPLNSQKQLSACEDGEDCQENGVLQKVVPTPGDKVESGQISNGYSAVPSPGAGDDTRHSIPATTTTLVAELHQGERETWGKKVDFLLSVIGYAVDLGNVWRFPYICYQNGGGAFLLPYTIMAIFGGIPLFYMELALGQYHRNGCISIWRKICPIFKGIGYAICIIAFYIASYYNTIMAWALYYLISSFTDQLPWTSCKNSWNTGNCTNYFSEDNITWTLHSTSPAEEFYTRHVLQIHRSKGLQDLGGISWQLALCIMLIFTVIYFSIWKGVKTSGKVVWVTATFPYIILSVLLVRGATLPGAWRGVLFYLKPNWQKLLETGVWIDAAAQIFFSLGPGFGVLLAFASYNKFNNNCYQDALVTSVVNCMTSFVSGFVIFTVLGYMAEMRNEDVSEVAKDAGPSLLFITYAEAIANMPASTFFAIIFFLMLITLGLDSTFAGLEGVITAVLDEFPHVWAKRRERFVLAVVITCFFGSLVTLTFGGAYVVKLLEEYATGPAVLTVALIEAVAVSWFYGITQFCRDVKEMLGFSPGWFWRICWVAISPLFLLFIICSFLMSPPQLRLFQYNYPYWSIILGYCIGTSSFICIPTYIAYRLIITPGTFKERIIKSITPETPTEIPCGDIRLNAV

Chain of hNET (P23975 whole entry): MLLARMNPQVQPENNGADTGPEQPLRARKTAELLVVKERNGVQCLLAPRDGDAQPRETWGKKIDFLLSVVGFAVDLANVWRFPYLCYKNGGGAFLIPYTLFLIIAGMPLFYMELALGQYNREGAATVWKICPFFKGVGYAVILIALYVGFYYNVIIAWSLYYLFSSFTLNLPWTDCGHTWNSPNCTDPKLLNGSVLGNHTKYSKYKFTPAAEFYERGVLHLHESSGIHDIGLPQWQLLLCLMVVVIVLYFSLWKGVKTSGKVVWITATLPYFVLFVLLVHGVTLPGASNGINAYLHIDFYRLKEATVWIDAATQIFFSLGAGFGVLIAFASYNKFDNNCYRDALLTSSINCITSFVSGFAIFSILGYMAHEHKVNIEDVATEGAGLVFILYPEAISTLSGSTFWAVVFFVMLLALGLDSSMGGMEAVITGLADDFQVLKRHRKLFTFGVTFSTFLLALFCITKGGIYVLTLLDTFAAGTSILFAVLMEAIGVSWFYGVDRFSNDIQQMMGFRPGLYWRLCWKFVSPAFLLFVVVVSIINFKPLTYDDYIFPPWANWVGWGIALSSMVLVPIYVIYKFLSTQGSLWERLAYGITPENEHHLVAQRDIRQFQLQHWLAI

SMILES	Ki (hNET) [nM]	Ki (hSERT) [nM]
CC(C)[C@@H](Oc1c(Cl)cccc1Cl)[C@H]1CCNC1 [Example 6-29, (S)-3-[(R)-1-(2,6-Dichlorophenoxy)-2-methylpropyl]pyrrolidine]	≤ 100	≤ 100
Cc1cc(Cl)ccc1O[C@H](C(C)C)[C@H]1CCNC1 [Example 6-44, (S)-3-[(R)-1-(4-Chloro-2-methylphenoxy)-2-methylpropyl]pyrrolidine]	≤ 100	≤ 10
CC(C)[C@@H](Oc1ccc(Cl)cc1C(F)(F)F)[C@H]1CCNC1 [Example 6-52, (S)-3-[(R)-1-(4-Chloro-2-trifluoromethylphenoxy)-2-methylpropyl]pyrrolidine]	≤ 100	≤ 100
CC(C)[C@H](Oc1ccccc1[N+](=O)[O-])[C@H]1CCNC1 [Example 6-53, (S)-3-[(S)-2-Methyl-1-(2-nitrophenoxy)propyl]pyrrolidine]	≤ 10	≤ 100
CC(C)[C@H](Oc1cccc(F)c1)[C@H]1CCNC1 [Example 6-54, (S)-3-[(S)-1-(3-Fluorophenoxy)-2-methylpropyl]pyrrolidine]	≤ 10	≤ 100
CC(C)C(Oc1cccc(F)c1)C1CCNC1 (stereo not shown) [Example 6-55, 3-[1-(3-Fluorophenoxy)-2-methylpropyl]pyrrolidine]	≤ 100	≤ 100
CC(C)C(Oc1cc(Cl)cc(Cl)c1)C1CCNC1 (stereo not shown) [Example 6-67, 3-[1(3,5-Dichlorophenoxy)-2-methylpropyl]pyrrolidine]	≤ 100	≤ 10
CC(C)C(Oc1cccc(C(F)(F)F)c1)C1CCNC1 (stereo not shown) [Example 6-72, 3-[2-Methyl-1-(3-trifluoromethylphenoxy)-propyl]pyrrolidine]	≤ 100	≤ 10
CC(C)C(Oc1ccc(F)cc1)C1CCNC1 (stereo not shown) [Example 6-73, 3-[1-(4-Fluorophenoxy)-2-methylpropyl]pyrrolidine]	≤ 100	≤ 100
CC(C)[C@@H](Oc1ccc(Cl)cc1)[C@H]1CCNC1 [Example 6-76, (S)-3-[(R)-1-(4-Chlorophenoxy)-2-methylpropyl]pyrrolidine]	≤ 100	≤ 10
CC(C)C(Oc1ccc(C(F)(F)F)cc1)C1CCNC1 (stereo not shown) [Example 6-77, 3-[2-Methyl-1-(4-trifluoromethylphenoxy)propyl]pyrrolidine]	≤ 100	≤ 10
CCCC[C@@H](Oc1ccc(C(F)(F)F)cc1)[C@H]1CCNC1 [Example 8-5, (S)-3-[(R)-1-(4-Trifluoromethylphenoxy)pentyl]pyrrolidine]	≤ 100	≤ 10
CCCC[C@@H](Oc1cccc(Cl)c1Cl)[C@H]1CCNC1 [Example 8-6, (S)-3-[(R)-1-(2,3-Dichlorophenoxy)pentyl]pyrrolidine]	≤ 10	≤ 10
CCCC[C@@H](Oc1cccc(Cl)c1C)[C@H]1CCNC1 [Example 8-7, (S)-3-[(R)-1-(3-Chloro-2-methylphenoxy)pentyl]pyrrolidine]	≤ 10	≤ 10
CCCC[C@@H](Oc1ccc(Cl)cc1Cl)[C@H]1CCNC1 [Example 8-8, (S)-3-[(R)-1-(2,4-Dichlorophenoxy)pentyl]pyrrolidine]	≤ 10	≤ 10
CCCC[C@@H](Oc1ccc(C)cc1Cl)[C@H]1CCNC1 [Example 8-9, (S)-3-[(R)-1-(2-Chloro-4-methylphenoxy)pentyl]pyrrolidine]	≤ 100	≤ 10
CCCC[C@@H](Oc1ccc(Cl)cc1C)[C@H]1CCNC1 [Example 8-10, (S)-3-[(R)-1-(4-Chloro-2-methylphenoxy)pentyl]pyrrolidine]	≤ 10	≤ 10
CCCC[C@@H](Oc1ccc(Cl)cc1C(F)(F)F)[C@H]1CCNC1 [Example 8-11, (S)-3-[(R)-1-(4-Chloro-2-trifluoromethylphenoxy)pentyl]pyrrolidine]	≤ 10	≤ 10
CC(=O)c1c(F)cccc1O[C@@H](CC(C)C)[C@H]1CCNC1 [Example 10-38, 1-[2-Fluoro-6-((S)-3-methyl-1-(S)-pyrrolidin-3-yl-butoxy)phenyl]ethanone]	≤ 10	≤ 100

Second part, the compound after the results:

Ki (hNET) [nM]	Ki (hSERT) [nM]	SMILES
≤ 10	≤ 100	CC(C)CC(Oc1ccccc1F)C1CCNC1 (stereo not shown) [Example 10-2, 3-[1-(2-Fluorophenoxy)-3-methylbutyl]pyrrolidine]
≤ 10	≤ 100	CC(C)CC(Oc1cccc(F)c1)C1CCNC1 (stereo not shown) [Example 10-6, 3-[1-(3-Fluorophenoxy)-3-methylbutyl]pyrrolidine]
≤ 100	≤ 10	CC(C)C[C@H](Oc1ccc(Cl)cc1)[C@@H]1CCNC1 [Example 10-12, (R)-3-[(S)-1-(4-Chlorophenoxy)-3-methylbutyl]pyrrolidine]
≤ 100	≤ 10	CC(C)C[C@@H](Oc1ccc(Cl)cc1)[C@@H]1CCNC1 [Example 10-14, (R)-3-[(R)-1-(4-Chlorophenoxy)-3-methylbutyl]pyrrolidine]
≤ 100	≤ 10	CC(C)C[C@@H](Oc1ccc(C(F)(F)F)cc1)[C@H]1CCNC1 [Example 10-17, (S)-3-[(R)-3-Methyl-1-(4-trifluoromethylphenoxy)butyl]pyrrolidine]
≤ 100	≤ 10	CC(C)C[C@H](Oc1cccc(Cl)c1C(F)(F)F)[C@@H]1CCNC1 [Example 10-37, (R)-3-[(S)-1-(3-Chloro-2-trifluoromethylphenoxy)-3-methylbutyl]pyrrolidine]
≤ 100	≤ 10	CC(C)C[C@H](Oc1ccc(Cl)cc1Cl)[C@@H]1CCNC1 [Example 10-43, (R)-3-[(S)-1-(2,4-Dichlorophenoxy)-3-methylbutyl]pyrrolidine]
≤ 100	≤ 10	Cc1cc(Cl)ccc1O[C@@H](CC(C)C)[C@@H]1CCNC1 [Example 10-46, (R)-3-[(S)-1-(4-Chloro-2-methylphenoxy)-3-methylbutyl]pyrrolidine]
≤ 10	≤ 100	CSc1ccccc1O[C@H](C1CC1)[C@H]1CCNC1 [Example 16-4, (S)-3-[(R)cyclopropyl-(2-methylsulfanylphenoxy)methyl]pyrrolidine]
≤ 10	≤ 100	CSc1ccccc1O[C@@H](C1CC1)[C@H]1CCNC1 [Example 16-5, (S)-3-[(S)cyclopropyl-(2-methylsulfanylphenoxy)methyl]pyrrolidine]
≤ 100	≤ 10	Clc1cccc(O[C@@H](C2CC2)[C@@H]2CCNC2)c1Cl [Example 16-6, (R)-3-[(S)cyclopropyl-(2,3-dichlorophenoxy)methyl]pyrrolidine]
≤ 100	≤ 10	FC(F)(F)c1c(Cl)cccc1O[C@H](C1CC1)[C@H]1CCNC1 [Example 16-17, (S)-3-[(R)-(3-Chloro-2-trifluoromethylphenoxy)cyclopropylmethyl]pyrrolidine]
≤ 10	≤ 100	COc1c(Cl)cccc1O[C@@H](C1CC1)[C@H]1CCNC1 [Example 16-18, (S)-3-[(S)-(3-Chloro-2-methoxyphenoxy)cyclopropylmethyl]pyrrolidine]
≤ 100	≤ 10	Clc1ccc(O[C@H](C2CC2)[C@H]2CCNC2)c(Cl)c1 [Example 16-20, (S)-3-[(R)cyclopropyl-(2,4-dichlorophenoxy)methyl]pyrrolidine]
≤ 100	≤ 10	Clc1ccc(O[C@H](C2CC2)[C@@H]2CCNC2)c(Cl)c1 [Example 16-21, (R)-3-[(R)cyclopropyl-(2,4-dichlorophenoxy)methyl]pyrrolidine]
≤ 100	≤ 10	Cc1ccc(O[C@H](C2CC2)[C@@H]2CCNC2)c(Cl)c1 [Example 16-24, (R)-3-[(R)-(2-Chloro-4-methylphenoxy)cyclopropylmethyl]pyrrolidine]
≤ 100	≤ 10	Cc1ccc(O[C@H](C2CC2)[C@@H]2CCNC2)c(Br)c1 [Example 16-26, (R)-3-[(R)-(2-Bromo-4-methylphenoxy)cyclopropylmethyl]pyrrolidine]
≤ 100	≤ 10	Cc1ccc(O[C@H](C2CC2)[C@@H]2CCNC2)c(C)c1 [Example 16-27, (R)-3-[(R)cyclopropyl-(2,4-dimethylphenoxy)-methyl]pyrrolidine]
≤ 100	≤ 10	Cc1cc(Cl)ccc1O[C@H](C1CC1)[C@H]1CCNC1 [Example 16-30, (S)-3-[(R)-(4-Chloro-2-methylphenoxy)cyclopropylmethyl]pyrrolidine]
≤ 100	≤ 10	Cc1cc(Cl)ccc1O[C@@H](C1CC1)[C@@H]1CCNC1 [Example 16-31, (R)-3-[(S)-(4-Chloro-2-methylphenoxy)cyclopropylmethyl]pyrrolidine]
≤ 100	≤ 10	Cc1cc(Cl)ccc1O[C@H](C1CC1)[C@@H]1CCNC1 [Example 16-32, (R)-3-[(R)-(4-Chloro-2-methylphenoxy)cyclopropylmethyl]pyrrolidine]
≤ 10	≤ 10	FC(F)(F)c1cc(Cl)ccc1O[C@@H](C1CC1)[C@H]1CCNC1 [Example 16-35, (S)-3-[(S)-(4-Chloro-2-trifluoromethylphenoxy)cyclopropylmethyl]pyrrolidine]
≤ 100	≤ 100	FC(F)(F)c1cc(Cl)ccc1O[C@H](C1CC1)[C@@H]1CCNC1 [Example 16-36, (R)-3-[(R)-(4-Chloro-2-trifluoromethylphenoxy)cyclopropylmethyl]pyrrolidine]
≤ 100	≤ 10	COc1cc(F)ccc1O[C@H](C1CC1)[C@H]1CCNC1 [Example 16-39, (S)-3-[(R)cyclopropyl-(4-fluoro-2-methoxyphenoxy)methyl]pyrrolidine]
≤ 10	≤ 100	COc1cc(F)ccc1O[C@@H](C1CC1)[C@H]1CCNC1 [Example 16-40, (S)-3-[(S)cyclopropyl-(4-fluoro-2-methoxyphenoxy)methyl]pyrrolidine]
